Data on twelve molecules can be found in patent US20080293644A1, “GUAVA EXTRACT” (priority 2007, published 2008).

Some results are limits rather than exact numbers.

In series [1] the target is T1, DP-IV (Homo sapiens, UniProt P27487).
T1 construct: DP-IV also exists as a soluble circulating form in plasma; from tissue; host or cells: human plasma
In words: DP-IV activity colorimetric assay (Gly-Pro-4-NA hydrolysis, 405 nm) in human plasma. The format is biochemical. The settings on record: for %-Inhibition DP-IV / inhibition at 100000 µM: unspecific enzyme inhibitors and solvents at 100 mM. How it is done:
DP-IV activity was measured by a colorimetric assay.
400 μL assay buffer (9.5 g HEPES/l distilled water, pH adjusted to 7.0, product number H4034, Sigma, St. Louis, Mo.), 150 μL human plasma and 100 μL inhibitor solution (or solvent) were transferred into a photometer cuvette, gently mixed and pre-incubated at 37° C. for 3 minutes. The assay was then started by addition of 70 μL substrate solution (8.6 mg Gly-Pro-4-NA in 10 ml assay buffer).
DP-IV activity is expressed as the linear change in optical density over 20 min (Δ Abs/min).
Full inhibition (100%) indicated no apparent increase in absorption.
100% activity in a test sample indicated the same increase in absorption compared in a sample with no inhibitor. Zero activity (0%) indicated no apparent increase in absorption.

Series [2] can be described thus: Stability of individual flavonol-glycosides during incubation conditions. The format is physicochemical. Particulars: 2 g extract (Example 2)/100 ml incubation media.
Series [3] relates to CaCO2 cells. In words: Absorption (uptake) of quercetin-glycosides in CaCO2 cells. Particulars: 60 minutes; for % uptake by CaCO2 cells (% of flavonol-glycosides present in incubation media): 2 g guava extract/100 ml incubation media, 37° C., mean of 5 incubations. It counts as in vitro ADME. How it is done: Incubation conditions: 37° C. for 60 minutes (5 replicate incubations)
Data evaluation: Ratio of peak areas of individual flavonol-glycosides obtained from HPLC analysis of incubation media (immediately after preparation and after 60 minutes of incubation) and the cell content.
Cells were grown in 75 cm^2 culture-flasks (T75) and subcultured after one week (every other day washed with PBS buffer, removed with trypsin and transferred to an new culture flask).
7 to 8 days until confluency was reached. The cells were washed with PBS buffer and incubated with the flavonol for 60 minutes.
After the corresponding incubation time, 900 μl of incubation medium used was taken from each well and mixed with 100 μl formic acid. The cells were washed with PBS buffer and removed using 1 ml of 10% formic acid. Cells were sonicated 3 times for 30 seconds, centrifuged for 10 minutes and the pellets were discarded. The supernatant was used as sample for HPLC.

T1 sequence (P27487 39-766 limits assumed): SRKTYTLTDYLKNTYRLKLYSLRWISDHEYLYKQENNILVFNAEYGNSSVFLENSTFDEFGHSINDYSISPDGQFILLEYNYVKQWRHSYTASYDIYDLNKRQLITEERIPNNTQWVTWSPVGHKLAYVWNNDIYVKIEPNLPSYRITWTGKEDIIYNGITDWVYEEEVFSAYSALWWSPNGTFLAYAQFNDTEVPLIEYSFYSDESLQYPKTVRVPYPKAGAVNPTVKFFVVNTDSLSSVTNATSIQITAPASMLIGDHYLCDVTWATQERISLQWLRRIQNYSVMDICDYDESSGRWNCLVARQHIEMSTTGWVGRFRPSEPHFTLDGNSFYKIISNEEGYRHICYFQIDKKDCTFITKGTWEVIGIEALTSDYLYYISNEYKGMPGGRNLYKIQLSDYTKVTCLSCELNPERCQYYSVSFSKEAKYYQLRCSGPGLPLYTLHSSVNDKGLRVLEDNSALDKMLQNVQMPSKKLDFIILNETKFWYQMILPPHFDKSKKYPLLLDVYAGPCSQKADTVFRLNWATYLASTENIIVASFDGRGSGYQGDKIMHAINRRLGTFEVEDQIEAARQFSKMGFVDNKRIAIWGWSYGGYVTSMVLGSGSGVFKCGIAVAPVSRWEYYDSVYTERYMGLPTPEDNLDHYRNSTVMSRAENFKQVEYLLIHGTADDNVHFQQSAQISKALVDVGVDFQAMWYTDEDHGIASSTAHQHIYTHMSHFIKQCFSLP

Regarding `C[CH2][Hg][S]c1ccccc1C(=O)[O-].[Na+]` [Thimerosal], the “%-Inhibition DP-IV” value in series [1] (human plasma) is recorded as under 1.0%.

Turning to `Cl.NCCN` [Ethylendiamine•HCl], the “%-Inhibition DP-IV” value in series [1] (human plasma) is recorded as 19.0%.

Take `C[S+](C)[O-]` [DMSO]: the “%-Inhibition DP-IV” value in series [1] (human plasma) is 75.3%.

For the molecule `O=c1c(O[C@@H]2OC[C@H](O)[C@H](O)[C@H]2O)c(-c2ccc(O)c(O)c2)oc2cc(O)cc(O)c12` [compound 6], the IC50 (in general, the midpoint of a concentration-inhibition curve) in series [1] (Concentration for 50% inhibition of DPIV, isolated flavonol-glycosides tested at 100-500 μg/ml, estimated) is 400 µM. For the same molecule, the “Stability 60 min. at 37° C., pH = 7” value in series [2] came out at 98.0 % from time = 0. Further, the “% uptake by CaCO2 cells (% of flavonol-glycosides present in incubation media)” value in series [3] is 5.3%.

Consider `CO` [Methanol], for which 100000 µM produced 59.7% inhibition in series [1] (human plasma).

On to `O=C(O)CN(CCN(CC(=O)O)CC(=O)O)CC(=O)O` [EDTA], for which the “%-Inhibition DP-IV” value in series [1] (human plasma) is reported as 24.0%.

As for `[Zn+2]` [Zinc^++], the “%-Inhibition DP-IV” value in series [1] (human plasma) amounted to 19.3%.

As to `Cn1ccnc1S` [Methimazol], in series [1] (human plasma), the “%-Inhibition DP-IV” value turned out to be 10.0%.

The molecule `O=c1c(O[C@@H]2OC[C@H](O)[C@H](O)[C@H]2O)c(-c2ccc(O)c(O)c2)oc2cc(O)cc(O)c12` [guaijaverin, quercetin-3-O-alpha-L-arabinopyranoside] registered an IC50 in series [1] (concentration yielding a DP-IV inhibition of around 50%, human plasma, 70-280 μg/ml tested) of 322 to 483 µM. Moreover, in series [1] (human plasma), the “DP-IV inhibition (in words)” value was “clear, dose dependent inhibition”. For the same molecule, in series [1] (human plasma, read from dose/response curve), the “concentration yielding a DP-IV inhibition of around 50%” value was 100-150 μg/assay volume. Also, the “inhibition of DP-IV” value in series [1] (sample adjusted to contain 180 μg guaijaverin/ml test assay, human plasma (FIG. 6)) stood at 50%. In series [3] (2 g guava extract/100 ml), the “absorption ranking in CaCO2 cells (in words)” value is on record as “best absorption”.

`CCO` [Ethanol]: the inhibition (as a rule, the drop in the measured response relative to a control, in per cent) at 100000 µM in series [1] (human plasma) was determined as 52.8%.

Turning to `O=c1c(O[C@@H]2O[C@H](CO)[C@@H](O)[C@H](O)[C@H]2O)c(-c2ccc(O)c(O)c2)oc2cc(O)cc(O)c12` [compound 4], the “Stability 60 min. at 37° C., pH = 7” value in series [2] was 98.2 % from time = 0. For the same molecule, the “% uptake by CaCO2 cells (% of flavonol-glycosides present in incubation media)” value in series [3] is on record as 4.5%.

Take `OCCS` [Mercaptoethanol]: the “%-Inhibition DP-IV” value in series [1] (human plasma) turned out to be 15.3%.
